Experiment [1] deals with T1, Hypoxia-inducible factor 1-alpha (Homo sapiens, UniProt Q16665). The experiment can be described thus: Activation of HIF1 in human T47D cells after 30 mins by luciferase reporter gene assay. It is filed as cell-based.
Experiment [2] concerns the target T1, Hypoxia-inducible factor 1-alpha. Kind of experiment: Activation of HIF1 in human T47D cells. It is filed as cell-based.

Molecules are shown by their SMILES.

T1 sequence (Q16665 whole entry): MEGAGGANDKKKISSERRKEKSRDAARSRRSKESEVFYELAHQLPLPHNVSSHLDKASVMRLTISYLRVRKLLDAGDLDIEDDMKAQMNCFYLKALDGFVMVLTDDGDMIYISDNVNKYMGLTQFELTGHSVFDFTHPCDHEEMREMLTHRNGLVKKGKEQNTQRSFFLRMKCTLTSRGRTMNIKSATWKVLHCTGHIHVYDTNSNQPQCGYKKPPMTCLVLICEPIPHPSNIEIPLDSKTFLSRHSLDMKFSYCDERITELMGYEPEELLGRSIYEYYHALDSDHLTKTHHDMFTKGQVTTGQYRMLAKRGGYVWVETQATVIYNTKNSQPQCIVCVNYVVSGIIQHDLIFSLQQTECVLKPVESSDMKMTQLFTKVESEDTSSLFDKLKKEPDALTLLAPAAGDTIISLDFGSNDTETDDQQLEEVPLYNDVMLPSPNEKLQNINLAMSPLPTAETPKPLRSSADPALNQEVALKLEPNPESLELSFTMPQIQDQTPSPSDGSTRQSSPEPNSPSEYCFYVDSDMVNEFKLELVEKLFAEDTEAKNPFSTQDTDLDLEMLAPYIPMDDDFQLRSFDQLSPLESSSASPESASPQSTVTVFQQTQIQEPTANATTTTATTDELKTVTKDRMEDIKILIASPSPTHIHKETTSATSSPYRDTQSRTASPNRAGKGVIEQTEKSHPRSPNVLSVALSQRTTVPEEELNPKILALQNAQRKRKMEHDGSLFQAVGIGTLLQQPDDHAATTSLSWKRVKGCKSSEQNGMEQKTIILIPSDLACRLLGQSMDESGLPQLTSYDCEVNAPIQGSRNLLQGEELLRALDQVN

In the case of `COc1ccc([C@@H](O)[C@@H](C)Oc2ccc([C@@H]3CC[C@H](c4ccc(O[C@H](C)[C@H](O)c5ccc(OC)c(OC)c5)c(OC)c4)C3)cc2OC)cc1OC`, in experiment [1], the IC50 is 0.003 µM.

In turn, `COc1ccc([C@@H](O)[C@@H](C)Oc2ccc([C@H]3O[C@H](c4ccc(OC)c(OC)c4)[C@H](C)[C@H]3C)cc2OC)cc1OC` displayed an IC50 in experiment [2] of 0.02 µM.

The record behind these values is ChEMBL document CHEMBL4342441, “Small molecules targeting HIF-1α pathway for cancer therapy in recent years” (Bioorg Med Chem, 2020).
